The values that follow come from US7303740B2, “Methods for the diagnosis and treatment of breast cancer” (Albert Einstein College of Medicine of Yeshiva University, priority 2000, dated 2007).

Experiment [1] deals with mgNIS. In words: mgNIS expression (immunoblot) and 125I- transport in MG of hormonally treated intact nubile mice. Format: in vivo. The note with it: intact nubile animals. As to the method:
(§1) FIG. 3. In vivo effect of oxytocin on functional expression of mgNIS in nubile mice. (A) Radioiodide transport in MG of oxytocin-treated nubile mice. Seven- to eight-week-old female mice were treated subcutaneously with phosphate buffered saline solution (PBS), 10 I.U. of prolactin (PRL), 1 I.U. of oxytocin (OXY), or prolactin and oxytocin (PRL+OXY) for three days. Then, 1 μCi of ^125I^− was injected intraperitoneally. […] (B) Immunoblot analysis of MG from hormonally-treated mice. […] Isolated membrane fractions were electrophoresed, electrotransferred onto nitrocellulose, and analyzed by immunoblots using anti-NIS Ab. […] Perchlorate-inhibited accumulation of ^99mTcO4^− was detected in stomach and MG of OXY-treated animals. (D) Quantification of ^99mTcO4^− accumulation in various organs from OXY- or PBS-treated mice. Tracer accumulation was monitored using image analysis software (ImageQuant, Macintosh). […] Counts were divided by the weight of the organs (cpm/mg tissue), and standardized by dividing them by cpm detected in the blood (cpm/mg blood) of each animal. ^99mTcO4^− accumulation in the organs from: PBS-treated animals (open bars); OXY-treated animals (dotted bars); and OXY-treated animals after ^99mTcO4^−+perchlorate injection (dark bars). […]
(In general: In western blotting, separated proteins are transferred to a membrane and probed.)

Experiment [2] concerns mgNIS. Description: Immunoblot analysis of mgNIS in MG from ovariectomized nubile mice treated with hormones. The format is in vivo. The note with it: for mgNIS expression in mammary tissue (immunoblot): three consecutive days. As to the method: FIG. 4. Immunoblot analysis of MG from ovariectomized nubile mice treated with various hormones. Membrane fractions isolated from MG of nubile mice were either sham treated with PBS (lane 1) or treated for three consecutive days with: progesterone (1 I.U.) (lane 2); 17-β-estradiol (1 μg) (lane 3); 17-β-estradiol and progesterone (1 I.U.) (lane 4); oxytocin (1 I.U.) (lane 5); oxytocin and 17-β-estradiol (lane 6); prolactin (10 I.U.) (lane 7); oxytocin, prolactin, and 17-β-estradiol (lane 8); and progesterone together with oxytocin, prolactin, and 17-β-estradiol (lane 9). Isolated membrane fractions were electrophoresed and electrotransferred onto nitrocellulose, followed by immunoblot analysis with anti-NIS Ab.
Oxytocin (α-hypophamine), prolactin, progesterone (4-pregnene-3,20-dione), and 17-β-estradiol (1,3,5[10]-estratriene-3,17-β-diol) were purchased from Sigma, St. Louis, Mo. Either ovariectomized or surgically unmodified 8- to 10-week-old CD1 (ICR) IBR mice (Charles River Laboratories, Wilmington, Mass.) were treated once a day with subcutaneous injections of 1 I.U. of oxytocin, 10 I.U. of prolactin, 1 μg 17-β-estradiol, or 1 I.U. of progesterone (intraperitoneally) for three consecutive days, either individually or in the indicated combination. A final injection was done on the fourth day; two hours later, mammary glands were removed for analysis. Oxytocin and prolactin were dissolved in sterile distilled water, 17-β-estradiol was dissolved in 90% alcohol, and progesterone was dissolved in sesame oil (Sigma, St. Louis, Mo.). Except for progesterone, indicated doses of hormones were injected after being taken in 200 μl sterile PBS solution. Progesterone (final concentration 10 mg/ml) was injected into 100 μl of sesame oil. Control animals which were sham treated with sesame oil were systematically included in experiments when progesterone was administered. At least three identically-treated animals were analyzed in each case.
Sprague-Dawley female rats (over 8 weeks old) at different physiological stages, and hormonally-treated CD1 (ICR) BR female mice, were sacrificed in a CO2 chamber before excision of thoracic, abdominal, and inguinal MG. Organs, which were removed from mice or rats were blended with a polytron homogenizer (Brinkmann Instruments, Westbury, N.Y.) for 1 min, and homogenized with a stirrer-type glass-teflon homogenizer (Caframo-Wiarton, Ontario, Canada) (Levy et al., 1997). Membrane fractions were prepared in the presence of protease inhibitors, as described above (Kaminsky et al., 1994). SDS-PAGE electrophoresis and electroblotting to nitrocellulose were performed as described in Levy et al. (1997). All samples were diluted 1:2 with loading buffer (Harlow and Lane, 1988) and heated at 37° C. for 30 min prior to electrophoresis. […]

Experiment [3] addresses T1, mgNIS (Mus musculus, UniProt Q99PN0).
T1 sequence (Q99PN0 1-618): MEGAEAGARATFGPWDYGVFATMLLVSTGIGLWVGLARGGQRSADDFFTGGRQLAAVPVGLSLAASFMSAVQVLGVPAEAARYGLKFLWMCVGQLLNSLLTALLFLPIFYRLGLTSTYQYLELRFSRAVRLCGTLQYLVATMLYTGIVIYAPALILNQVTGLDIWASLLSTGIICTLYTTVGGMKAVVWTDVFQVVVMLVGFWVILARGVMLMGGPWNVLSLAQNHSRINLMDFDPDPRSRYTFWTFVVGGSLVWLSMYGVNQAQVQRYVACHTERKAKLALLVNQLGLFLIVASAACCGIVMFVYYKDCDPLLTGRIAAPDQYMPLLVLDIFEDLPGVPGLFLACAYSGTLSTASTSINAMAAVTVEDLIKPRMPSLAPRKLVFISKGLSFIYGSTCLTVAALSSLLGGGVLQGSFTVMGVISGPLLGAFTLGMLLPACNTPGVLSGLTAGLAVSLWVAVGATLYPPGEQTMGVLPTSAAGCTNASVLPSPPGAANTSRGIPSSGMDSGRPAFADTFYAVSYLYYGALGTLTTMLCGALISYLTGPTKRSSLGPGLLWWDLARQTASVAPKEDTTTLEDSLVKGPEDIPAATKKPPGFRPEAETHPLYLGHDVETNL
In words: Ex vivo scintigraphic imaging of 99mTcO4- accumulation in organs of oxytocin-treated nubile mice. Also on record: Membrane fractions isolated from MG of nubile female mice; from tissue; host or cells: CD1 (ICR) mice (intact, ovariectomized, gestating) and MMTV-ras / MMTV-neu transgenic mice: mammary gland, mammary adenocarcinoma, stomach. The note with it: organs removed 30 min after tracer. As for the experimental part:
as §1

For `CC[C@H](C)[C@@H]1NC(=O)[C@H](Cc2ccc(O)cc2)NC(=O)[C@@H](N)CSSC[C@@H](C(=O)N2CCC[C@H]2C(=O)N[C@@H](CC(C)C)C(=O)NCC(N)=O)NC(=O)[C@H](CC(N)=O)NC(=O)[C@H](CCC(N)=O)NC1=O` [oxytocin, α-hypophamine], the “mgNIS expression in MG (immunoblot), leading to 125I- transport” value with mgNIS [1] (1 I.U. s.c. for three days) is given as “induced mgNIS expression”. In the experiment on mgNIS [2], the “mgNIS expression in mammary tissue (immunoblot)” value is “did not cause an increase”. Besides, the “perchlorate-inhibited 99mTcO4- accumulation in MGs versus sham-treated mice” value on mgNIS [3] is given as “significantly higher”.
For the molecule `CC(=O)[C@H]1CC[C@H]2[C@@H]3CCC4=CC(=O)CC[C@]4(C)[C@H]3CC[C@]12C` [progesterone, 4-pregnene-3,20-dione], in the experiment with mgNIS [2], the “effect on 17-β-estradiol enhancement of mgNIS expression” value is “did not interfere” and the “mgNIS expression when added to the 17-β-estradiol/oxytocin/prolactin combination” value is listed as “significantly decreased”.
Take `C[C@]12CC[C@@H]3c4ccc(O)cc4CC[C@H]3[C@@H]1CC[C@@H]2O` [17-β-estradiol, 1,3,5[10]-estratriene-3,17-β-diol]: the “mgNIS expression in mammary tissue (immunoblot)” value with mgNIS [2] was “clearly discernible increase”.

B1: prolactin: a glycoprotein released from the anterior pituitary (protein, UniProt P01236 29-227, looked up)
Prolactin: LPICPGGAARCQVTLRDLFDRAVVLSHYIHNLSSEMFSEFDKRYTHGRGFITKAINSCHTSSLATPEDKEQAQQMNQKDFLSLIVSILRSWNEPLYHLVTEVRGMQEAPEAILSKAVEIEEQTKRLLEGMELIVSQVHPETKENEIYPVWSGLPSLQMADEESRLSAYYNLLHCLRRDSHKIDNYLKLLKCRIIHNNNC
Take B1: in the experiment on mgNIS [1] (10 I.U. prolactin with 1 I.U. oxytocin), the “effect on upregulation of mgNIS by oxytocin” value was “antagonized”.
